# Experimental data taken from publication PMC8421423, “Cellular model system to dissect the isoform-selectivity of Akt inhibitors” (Nature Communications, 2021).
# “And” between values parts separate entries of the source, which are not always exact repeats. Equal values may be shown once. Read-outs that look alike come from different tables or passages of the source.
# Columns and labels:
# Akt2 [1] = target: T1, Akt2 (Homo sapiens, UniProt P31751); test: STK HTRF KinEASE activity-based assay (IC50)
# Akt3 [2] = target: T2, Akt3 (Homo sapiens, UniProt Q9Y243); test: STK HTRF KinEASE activity-based assay (IC50)
# Akt2 [3] = target: T1, Akt2; test: Cellular thermal shift assay (CETSA) in PANC1 cells; format: cell-based; set-up: purchased Thermo Fisher Scientific #PV3184
# Procedure: (§1) Cells were seeded into 100 mm tissue culture plates (Sarstedt) (PANC1: 10^6 cells). After 24 h incubation, cells were treated with 1 µM of inhibitors or DMSO and were incubated for 4.5 h. Cells were washed twice with ice-cold PBS and then suspended in 1 mL PBS. Cells were collected and separated into equal volumes (100 µL). The aliquots were treated individually with different temperatures for 3 min, followed by a 3 min incubation at room temperature. Cell lysis was initiated by adding 100 µL RIPA buffer and 2 freeze-thaw cycles in liquid nitrogen. The lysates were centrifuged at 21,130×g for 20 min at room temperature. The supernatants were transferred into fresh, pre-cooled microcentrifuge tubes, and analyzed by western blot analysis as described above.
# Akt1 [4] = target: T3, Akt1 (Homo sapiens, UniProt P31749); test: STK HTRF KinEASE activity-based assay (IC50)
# Procedure: The biochemical half maximal inhibitory concentrations (IC50) were determined with the STK HTRF KinEASE assay (Cisbio) according to the manufactor’s instructions. Briefly: 5 µL Kinase solution and 2.5 µL inhibitor solution (8% DMSO in HTRF buffer) were incubated for 1 h before the reaction was started by addition of 2.5 µL starting solution containing ATP and substrate peptide. […] After reaction completion (Akt1: 60 min, Akt2: 20 min, Akt3: 15 min), 10 µL of stop solution were added. […] The quotient of both intensities were recorded at eight different inhibitor concentrations and data fit to a Hill 4-parameter equation with Quattro software suite (Quattro Research GmbH, Martinsried, Germany). Each reaction was performed in duplicates and at least three independent determinations of each IC50 were made.
# Akt1 [5] = target: T3, Akt1; test: Cellular thermal shift assay (CETSA) in PANC1 cells; format: cell-based; set-up: purchased ProQinase #1379-0000-2
# Procedure: as §1
# pAkt2 = test: Western blot analysis, PANC1 cells; format: cell-based, human; conditions: PANC1, 24-h treatment
# Procedure: Cells were seeded into six-well tissue culture plates (Sarstedt) (BaF3 myr-Akt1/2/3: 10^6 cells/well, PANC1: 250.000 cells/well). […] Cell lysis was initiated by addition of 100 μL RIPA buffer (Cell Signaling Technology) per well supplemented with phosphatase and protease inhibitor cocktails (Sigma) followed by incubation on ice for 20 min. Cells were then harvested by scraping (PANC1) or centrifugation (BaF3). Whole cell lysates were cleared by centrifugation at 14,000×g/4 °C for 10 min and transferred into fresh, pre-cooled microcentrifuge tubes. Protein concentrations were determined using the Pierce BCA protein assay (Thermo) as per manufacturer’s instructions. Equal amounts of protein were separated by SDS-PAGE and transferred to Immobilon-FL PVDF membranes (Merck Millipore) using Pierce™ 1-step transfer buffer (Thermo) and the Pierce™ Power Blotter (Thermo). Membranes were washed for 5 min with ddH2O, blocked with Intercept®Blocking Buffer TBS (Li-Cor) for 1 h at room temperature, and then incubated with primary antibodies diluted in Intercept®Blocking Buffer TBS overnight at 4 °C with gentle agitation. On the next day, the membranes were washed three times with TBS-T (50 mM Tris, 150 mM NaCl, 0.05 % Tween 20, pH 7.4) for 5 min before being incubated with secondary antibodies diluted in Intercept®Blocking Buffer TBS for 1 h at room temperature with gentle agitation. Finally, the membranes were washed three times for 5 min with TBS-T and then scanned using an Odyssey®CLx imaging system (Li-Cor).
# [6] = CellTiter-Glo cell viability assay; format: cell-based, murine; conditions: mouse, parental Ba/F3 cells, CTG, parental, single replicates
# parental Ba/F3 cells = test: CellTiter-Glo cell viability assay; format: cell-based, murine; conditions: for cell viability: CTG, parental
# Ba/F3^myr-Akt1 cells = test: CellTiter-Glo cell viability assay; conditions: for cell viability: CTG
# Ba/F3^myr-Akt3 cells = test: CellTiter-Glo cell viability assay; conditions: for cell viability: CTG
# Procedure: (§2) On day 0, cells were plated into white 384-well cell culture plates (Greiner Bio-One) using a Multidrop reagent dispenser (Thermo Fisher Scientific) at cell numbers that ensure linear and optimal luminescent signal intensity (Ba/F3myr-Akt1: 600 cells/well, Ba/F3myr-Akt2: 800 cells/well, Ba/F3myr-Akt3: 800 cells/well). […] Cell viability was analyzed on day 4 using the CellTiter-Glo Assay (Promega) as per the manufacturer’s instructions. […] All experimental points were measured in duplicates for each plate and were replicated in at least three plates.
# Akt3 [7] = target: T2, Akt3; test: Cellular thermal shift assay (CETSA) in PANC1 cells; format: cell-based; set-up: purchased ProQinase #1578-0000-1
# Procedure: as §1
# Ba/F3^myr-Akt2 cells = test: CellTiter-Glo cell viability assay; conditions: for cell viability: CTG
# Procedure: as §2
# [8] = CETSA PANC1, 1 µM, temperature 39.9
# [9] = CETSA PANC1, 1 µM, temperature 43.5
# [10] = CETSA PANC1, 1 µM, temperature 48.4
# [11] = CETSA PANC1, 1 µM, temperature 53.8
# [12] = CETSA PANC1, 1 µM, temperature 58.1
# [13] = CETSA PANC1, 1 µM, temperature 61.4
# [14] = CETSA PANC1, 1 µM, temperature 65.6
# [15] = CETSA PANC1, 1 µM, temperature 70.9
# [16] = CETSA PANC1, 1 µM, temperature 76
# [17] = CETSA PANC1, 1 µM, temperature 79.9
# [18] = CETSA PANC1, 2.5 µM, temperature 39.9
# [19] = CETSA PANC1, 2.5 µM, temperature 43.5
# [20] = CETSA PANC1, 2.5 µM, temperature 48.4
# [21] = CETSA PANC1, 2.5 µM, temperature 53.8
# [22] = CETSA PANC1, 2.5 µM, temperature 58.1
# [23] = CETSA PANC1, 2.5 µM, temperature 61.4
# [24] = CETSA PANC1, 2.5 µM, temperature 65.6
# [25] = CETSA PANC1, 2.5 µM, temperature 70.9
# [26] = CETSA PANC1, 2.5 µM, temperature 76
# [27] = CETSA PANC1, 2.5 µM, temperature 79.9
# [28] = cell viability assay Ba/F3 myr-Akt cells, log units
# T3 sequence (P31749 whole entry): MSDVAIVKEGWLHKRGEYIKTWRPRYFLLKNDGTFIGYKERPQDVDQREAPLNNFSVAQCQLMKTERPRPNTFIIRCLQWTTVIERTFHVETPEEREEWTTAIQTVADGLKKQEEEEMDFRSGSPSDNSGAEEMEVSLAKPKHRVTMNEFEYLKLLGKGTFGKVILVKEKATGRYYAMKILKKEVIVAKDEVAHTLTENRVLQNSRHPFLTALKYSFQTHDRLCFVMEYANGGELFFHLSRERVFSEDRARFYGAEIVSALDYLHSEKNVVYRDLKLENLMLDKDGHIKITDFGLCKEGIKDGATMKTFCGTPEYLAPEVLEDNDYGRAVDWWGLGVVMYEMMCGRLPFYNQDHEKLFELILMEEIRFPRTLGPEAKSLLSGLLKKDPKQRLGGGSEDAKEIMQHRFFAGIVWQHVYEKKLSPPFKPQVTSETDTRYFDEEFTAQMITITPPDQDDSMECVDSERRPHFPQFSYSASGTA
# T2 sequence (Q9Y243 whole entry): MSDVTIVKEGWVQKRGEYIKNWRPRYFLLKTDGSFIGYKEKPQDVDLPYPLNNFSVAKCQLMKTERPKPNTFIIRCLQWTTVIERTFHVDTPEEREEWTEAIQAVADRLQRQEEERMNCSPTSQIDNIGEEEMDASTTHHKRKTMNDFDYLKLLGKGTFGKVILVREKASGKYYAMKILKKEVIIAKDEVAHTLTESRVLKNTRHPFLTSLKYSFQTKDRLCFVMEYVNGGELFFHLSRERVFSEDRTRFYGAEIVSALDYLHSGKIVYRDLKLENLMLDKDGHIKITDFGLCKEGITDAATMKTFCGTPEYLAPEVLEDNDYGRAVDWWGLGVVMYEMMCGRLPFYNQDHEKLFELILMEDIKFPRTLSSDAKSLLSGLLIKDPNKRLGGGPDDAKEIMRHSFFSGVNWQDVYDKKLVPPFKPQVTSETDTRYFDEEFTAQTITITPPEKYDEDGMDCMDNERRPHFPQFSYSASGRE
# T1 sequence (P31751 whole entry): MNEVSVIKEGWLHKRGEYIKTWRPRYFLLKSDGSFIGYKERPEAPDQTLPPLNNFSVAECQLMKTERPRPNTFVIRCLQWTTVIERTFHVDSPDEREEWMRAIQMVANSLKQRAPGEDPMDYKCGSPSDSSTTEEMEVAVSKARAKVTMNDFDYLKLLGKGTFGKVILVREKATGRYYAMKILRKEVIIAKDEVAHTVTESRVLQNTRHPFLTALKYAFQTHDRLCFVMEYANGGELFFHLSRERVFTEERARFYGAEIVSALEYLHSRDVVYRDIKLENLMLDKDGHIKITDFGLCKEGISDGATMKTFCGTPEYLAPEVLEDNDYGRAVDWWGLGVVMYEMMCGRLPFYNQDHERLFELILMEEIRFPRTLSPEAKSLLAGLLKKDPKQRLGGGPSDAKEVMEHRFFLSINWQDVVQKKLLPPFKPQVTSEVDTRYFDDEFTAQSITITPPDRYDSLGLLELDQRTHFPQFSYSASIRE
compound,measurement,setting,value
C=CC(=O)Nc1ccc2[nH]c(=O)n(C3CCN(Cc4ccc(-c5ncc(Cc6ccc(N)nc6)cc5-c5ccccc5)cc4)CC3)c2c1 [compound 20],IC50,"Akt2 [1]; HTRF IC50 Akt2, Mean, mean of replicates",175 nM
same,IC50,"Akt2 [1]; HTRF IC50 Akt2, individual determinations, single replicates",177 nM and 317 nM and 174 nM
same,IC50,"Akt2 [1]; IC50 Akt2, HTRF, ATP at KM, 1 h preincubation",175 ± 2 nM
same,IC50,"Akt3 [2]; HTRF IC50 Akt3, individual determinations, single replicates",144 nM and 176 nM and 240 nM and 188 nM
same,IC50,"Akt3 [2]; IC50 Akt3, HTRF, ATP at KM, 1 h preincubation",187 ± 40 nM
same,tAkt2 %,Akt2 [3]; [8],100.00%
same,tAkt2 %,Akt2 [3]; [9],81.90%
same,tAkt2 %,Akt2 [3]; [10],58.55%
same,tAkt2 %,Akt2 [3]; [11],58.55%
same,tAkt2 %,Akt2 [3]; [12],42.44%
same,tAkt2 %,Akt2 [3]; [13],52.13%
same,tAkt2 %,Akt2 [3]; [14],35.55%
same,tAkt2 %,Akt2 [3]; [15],6.07%
same,tAkt2 %,Akt2 [3]; [16],11.50%
same,tAkt2 %,Akt2 [3]; [17],0.00%
same,tAkt2 %,Akt2 [3]; [18],100.00%
same,tAkt2 %,Akt2 [3]; [19],97.05%
same,tAkt2 %,Akt2 [3]; [20],85.02%
same,tAkt2 %,Akt2 [3]; [21],75.94%
same,tAkt2 %,Akt2 [3]; [22],76.89%
same,tAkt2 %,Akt2 [3]; [23],28.89%
same,tAkt2 %,Akt2 [3]; [24],35.73%
same,tAkt2 %,Akt2 [3]; [25],24.29%
same,tAkt2 %,Akt2 [3]; [26],12.62%
same,tAkt2 %,Akt2 [3]; [27],0.00%
same,"thermal stabilization of Akt2 (CETSA, in words)","Akt2 [3]; PANC1, 2.5 µM",significant stabilization of Akt2 and Akt3
same,IC50,"Akt1 [4]; HTRF IC50 Akt1, Mean, mean of replicates",1630 nM
same,IC50,"Akt1 [4]; HTRF IC50 Akt1, individual determinations, single replicates",1630 nM and 1810 nM and 1450 nM
same,IC50,"Akt1 [4]; IC50 Akt1, HTRF, ATP at KM, 1 h preincubation",1630 ± 148 nM
same,"Log ratio IC50 [Akt] / IC50 [Akt], Akt1 / Akt2","Akt1 [4]; biochemical activity based assay, log units",0.97
same,tAkt1 %,Akt1 [5]; [8],100.00%
same,tAkt1 %,Akt1 [5]; [9],45.86%
same,tAkt1 %,Akt1 [5]; [10],43.98%
same,tAkt1 %,Akt1 [5]; [11],34.21%
same,tAkt1 %,Akt1 [5]; [12],23.05%
same,tAkt1 %,Akt1 [5]; [13],19.70%
same,tAkt1 %,Akt1 [5]; [14],13.05%
same,tAkt1 %,Akt1 [5]; [15],3.12%
same,tAkt1 %,Akt1 [5]; [16],1.54%
same,tAkt1 %,Akt1 [5]; [17],0.00%
same,tAkt1 %,Akt1 [5]; [18],100.00%
same,tAkt1 %,Akt1 [5]; [19],55.35%
same,tAkt1 %,Akt1 [5]; [20],36.29%
same,tAkt1 %,Akt1 [5]; [21],40.13%
same,tAkt1 %,Akt1 [5]; [22],29.31%
same,tAkt1 %,Akt1 [5]; [23],31.38%
same,tAkt1 %,Akt1 [5]; [24],3.90%
same,tAkt1 %,Akt1 [5]; [25],-1.89%
same,tAkt1 %,Akt1 [5]; [26],0.94%
same,tAkt1 %,Akt1 [5]; [27],0.00%
same,pAkt2 level (immunoblot),pAkt2,moderate downregulation of pAkt2
same,"viability at 3 days, 0.0001 µM","[6]; 0.1 nM, read-out: cell viability",104%
same,"viability at 3 days, 5 µM",[6]; 5000 nM,83.7%
same,cell viability,"parental Ba/F3 cells; 0.1 nM, single replicates, 0.0001 µM",98.4 % of control and 93.0 % of control
same,cell viability,"parental Ba/F3 cells; 5000 nM, single replicates, 5 µM",87.1 % of control and 85.4 % of control
same,EC50,"parental Ba/F3 cells; Mus musculus, BaF3, parental cells, mean of replicates, read-out: CTG BaF3, Mean",12100 nM
same,EC50,"parental Ba/F3 cells; Mus musculus, BaF3, parental cells, single replicates, read-out: CTG BaF3, individual determinations",9750 nM
same,EC50,"parental Ba/F3 cells; parental cells, single replicates, read-out: CTG BaF3, individual determinations",9720 nM and 18600 nM
same,cell viability,"Ba/F3^myr-Akt1 cells; myr-Akt1, 0.1 nM, single replicates, 0.0001 µM",108.0 % of control and 90.0 % of control
same,cell viability,"Ba/F3^myr-Akt1 cells; myr-Akt1, 5000 nM, single replicates, 5 µM",85.6 % of control and 91.8 % of control
same,EC50,"Ba/F3^myr-Akt1 cells; Mus musculus, read-out: CTG BaF3myr-Akt1, Mean, mean of replicates",9480 nM
same,EC50,"Ba/F3^myr-Akt1 cells; Mus musculus, read-out: CTG BaF3myr-Akt1, individual determinations, single replicates",10000 nM
same,viability at 0.0001 µM,"Ba/F3^myr-Akt1 cells; Mus musculus, read-out: cell viability, CTG, myr-Akt1, 0.1 nM, single replicates",102%
same,viability at 5 µM,"Ba/F3^myr-Akt1 cells; Mus musculus, read-out: cell viability, CTG, myr-Akt1, 5000 nM, single replicates",73.6%
same,"Log ratio EC50 [Akt] / EC50 [Akt], Akt1 / Akt2",Ba/F3^myr-Akt1 cells; [28],0.27
same,EC50,"Ba/F3^myr-Akt1 cells; read-out: CTG BaF3myr-Akt1, individual determinations, single replicates",9200 nM and 9240 nM
same,cell viability,"Ba/F3^myr-Akt3 cells; myr-Akt3, 0.1 nM, single replicates, 0.0001 µM",100.1 % of control and 113.6 % of control and 88.4 % of control
same,cell viability,"Ba/F3^myr-Akt3 cells; myr-Akt3, 5000 nM, single replicates, 5 µM",49.5 % of control and 56.5 % of control and 73.0 % of control
same,EC50,"Ba/F3^myr-Akt3 cells; Mus musculus, read-out: CTG BaF3myr-Akt3, Mean, mean of replicates",5050 nM
same,EC50,"Ba/F3^myr-Akt3 cells; Mus musculus, read-out: CTG BaF3myr-Akt3, individual determinations, single replicates",5100 nM
same,"Log ratio EC50 [Akt] / EC50 [Akt], Akt3 / Akt2",Ba/F3^myr-Akt3 cells; [28],-0.09
same,EC50,"Ba/F3^myr-Akt3 cells; read-out: CTG BaF3myr-Akt3, individual determinations, single replicates",4070 nM and 5520 nM
same,tAkt3 %,Akt3 [7]; [8],100.00%
same,tAkt3 %,Akt3 [7]; [9],71.95%
same,tAkt3 %,Akt3 [7]; [10],46.73%
same,tAkt3 %,Akt3 [7]; [11],49.56%
same,tAkt3 %,Akt3 [7]; [12],48.14%
same,tAkt3 %,Akt3 [7]; [13],35.11%
same,tAkt3 %,Akt3 [7]; [14],25.19%
same,tAkt3 %,Akt3 [7]; [15],2.44%
same,tAkt3 %,Akt3 [7]; [16],2.83%
same,tAkt3 %,Akt3 [7]; [17],0.00%
same,tAkt3 %,Akt3 [7]; [18],100.00%
same,tAkt3 %,Akt3 [7]; [19],103.86%
same,tAkt3 %,Akt3 [7]; [20],83.57%
same,tAkt3 %,Akt3 [7]; [21],72.46%
same,tAkt3 %,Akt3 [7]; [22],73.91%
same,tAkt3 %,Akt3 [7]; [23],50.24%
same,tAkt3 %,Akt3 [7]; [24],22.85%
same,tAkt3 %,Akt3 [7]; [25],8.02%
same,tAkt3 %,Akt3 [7]; [26],2.05%
same,tAkt3 %,Akt3 [7]; [27],0.00%
same,"thermal stabilization of Akt3 (CETSA, in words)","Akt3 [7]; PANC1, 1 µM",slight stabilization of Akt3
same,"thermal stabilization of Akt3 (CETSA, in words)","Akt3 [7]; PANC1, 2.5 µM",significant stabilization of Akt2 and Akt3
same,cell viability,"Ba/F3^myr-Akt2 cells; myr-Akt2, 0.1 nM, single replicates, 0.0001 µM",92.3 % of control and 98.1 % of control
same,cell viability,"Ba/F3^myr-Akt2 cells; myr-Akt2, 5000 nM, single replicates, 5 µM",26.9 % of control and 44.2 % of control
same,EC50,"Ba/F3^myr-Akt2 cells; Mus musculus, read-out: CTG BaF3myr-Akt2, Mean, mean of replicates",4090 nM
same,EC50,"Ba/F3^myr-Akt2 cells; Mus musculus, read-out: CTG BaF3myr-Akt2, individual determinations, single replicates",2950 nM
same,viability at 0.0001 µM,"Ba/F3^myr-Akt2 cells; Mus musculus, read-out: cell viability, CTG, myr-Akt2, 0.1 nM, single replicates",105%
same,viability at 5 µM,"Ba/F3^myr-Akt2 cells; Mus musculus, read-out: cell viability, CTG, myr-Akt2, 5000 nM, single replicates",25.6%
same,EC50,"Ba/F3^myr-Akt2 cells; read-out: CTG BaF3myr-Akt2, individual determinations, single replicates",4700 nM and 4620 nM
